# Data from patent publication US20020086065A1, “Methods and compositions for the benefit of those suffering from polycystic ovary syndrome with chromium complexes” (priority 2000, published 2002).
# Columns and labels:
# [1] = rats, oral CrCl3 with the NSAID; cited from earlier work
# women with PCOS = details: 14 women with PCOS, metformin 850 mg three times a day for 12 weeks; cited from earlier work
# [2] = test system: subject presenting with PCOS; assay: Example: oral chromium picolinate/picolinic acid tablet in a subject presenting with PCOS; format: in vivo; details: daily dose of 1,000 μg of chromium
# Experimental: A subject presenting with PCOS is identified. The subject is orally administered a tablet comprising chromium picolinate and picolinic acid at a ratio of 1:10 w/w at a daily dose of 1,000 μg of chromium. The tablet additionally comprises guaifenesin and ibuprofen in a pharmaceutically effective dose. Over the course of several weeks, a decrease in body mass and improved lipid profile is observed. The chromic picolinate sensitizes the subject's insulin and the symptoms of PCOS are reduced.
compound,measurement,setting,value
CC(=O)Oc1ccccc1C(=O)O [aspirin],Chromium absorption following oral administration of CrCl3,[1],facilitated
CN(C)C(=N)N=C(N)N [metformin],17-hydroxy progesterone level,women with PCOS,unchanged
same,Body mass index (BMI),women with PCOS,unchanged
same,DHEAS level,women with PCOS,unchanged
same,Free testosterone level,women with PCOS,unchanged
same,androstenedione level,women with PCOS,unchanged
same,estradiol level,women with PCOS,unchanged
same,follicle-stimulating hormone (FSH) level,women with PCOS,unchanged
same,insulin secretion,women with PCOS,not improved
same,progesterone level,women with PCOS,unchanged
same,stimulated LH level,women with PCOS,unchanged
chromic picolinate,effect on the subject's insulin,[2],sensitizes
